Data as given in patent US10287271B2, “Indole compounds having antiprotozoal activity and its use as well as methods for producing the same” (TECHNISCHE UNIVERSITAET BRAUNSCHWEIG, priority 2015, dated 2019).

Test system: NF54-luc P. falciparum
Assay: luciferase-based viability assay, erythrocytic stages of transgenic NF54-luc P. falciparum
Format: cell-based, Plasmodium falciparum
Conditions: for inhibition at 3 µM / inhibition at 30 µM / EC50: Plasmodium falciparum; for inhibition at 3 µM / inhibition at 30 µM: NF54, 48 hours; for inhibition at 3 µM: 3 μM test compound; for inhibition at 30 µM: 30 μM test compound; for EC50: erythrocytic stages NF54-luc, 48 hours incubation, titration
Description: Erythrocytic stages of transgenic NF54-luc P. falciparum were used for the luciferase-based viability assay. First, the culture was dispensed in triplicate into white 96-well flat bottom plates (each well contains 250 ul) (NUNC, Denmark) with parasitemia of 0.5-1%. Then the cultures were incubated in the presence of a 30 μM concentration of the test compounds for 48 hours (37° C., 90% N2, 5% CO2, and 5% O2). Subsequently, 100 ul RPMI1640 media was removed from each well and a 100 μL volume of the Bright-Glo® substrate solution was added to each well. One of the cleavage products of the reaction is light, which was measured by a FLUOROSKAN FL luminometer (Thermo) machine; thereby detecting the amount of living parasites. In case the inhibition of the proliferation exceeded 50%, the experiments were repeated with 3 μM solutions. […] The EC50 value is the half maximal effective concentration (the concentration at which half maximal inhibition is observed). Untreated cultures were used as negative controls and to calculate the inhibition rate (0% inhibition of parasite growth). Blasticidin (Sigma-Aldrich, St. Louis, Mo.), a drug used for selection of transfected parasites, was included as a positive control on each plate and gave >90% inhibition of parasite growth at 2 μg/mL.

SMILES	inhibition of parasite growth (positive control at 2 μg/mL) [%]	inhibition at 3 µM [%]	inhibition at 30 µM [%]	EC50 [µM]
CN(CC[C@H](N)CC(=O)N[C@H]1C=C[C@H](n2ccc(N)nc2=O)O[C@@H]1C(=O)O)C(=N)N [Blasticidin, reference compound]	> 90			
O=c1c(-c2c(-c3ccccc3)[nH]c3ccccc23)c(-c2c(-c3ccccc3)[nH]c3ccccc23)c1=O [KuHL009, 3,4-Bis(2-phenyl-1H-indol-3-yl)cyclobut-3-ene-1,2-dione]		41.1 ± 0.6	98.9 ± 0.8	2.47
Cc1[nH]c2ccccc2c1-c1c(-c2c(C)[nH]c3ccccc23)c(=O)c1=O [KuHL012, 3,4-Bis(2-methyl-1H-indol-3-yl)cyclobut-3-ene-1,2-dione]		18.3 ± 6.3	77.8 ± 5.9	
COc1ccc2[nH]cc(-c3c(-c4c(C)[nH]c5ccccc45)c(=O)c3=O)c2c1 [KuHL018, 3-(5-Methoxy-1H-indol-3-yl)-4-(2-methyl-1H-indol-3-yl)cyclobut-3-en-1,2-dione]		34.2 ± 8	99.6 ± 0.2	10
Cc1[nH]c2ccccc2c1-c1c(-c2c[nH]c3ccccc23)c(=O)c1=O [KuHL025, 3-(1H-Indol-3-yl)-4-(2-methyl-1H-indol-3-yl)cyclobut-3-ene-1,2-dione]		23.4 ± 5.4	98.8 ± 0.5	> 30
Cc1[nH]c2ccccc2c1-c1c(-c2c(-c3ccccc3)[nH]c3ccccc23)c(=O)c1=O [KuHL026, 3-(2-Methyl-1H-indol-3-yl)-4-(2-phenyl-1H-indol-3-yl)cyclobut-3-ene-1,2-dione]		41.1 ± 1.7	98.4 ± 0.5	9.26
Cc1[nH]c2ccccc2c1-c1c(-c2c[nH]c3ccc(Br)cc23)c(=O)c1=O [KuHL027, 3-(5-Bromo-1H-indol-3-yl)-4-(2-methyl-1H-indol-3-yl)cyclobut-3-ene-1,2-dione]		45.6 ± 1.8	99.3 ± 0.4	30.5
Cn1cc(-c2c(-c3c[nH]c4ccccc34)c(=O)c2=O)c2ccccc21 [KuHL032, 3-(1H-Indol-3-yl)-4-(1-methyl-1H-indol-3-yl)cyclobut-3-ene-1,2-dione]		52 ± 1.8	98.7 ± 1.1	2.97
O=c1c(-c2c[nH]c3ccccc23)c(-c2c[nH]c3ccc(Br)cc23)c1=O [KuHL037, 3-(5-Bromo-1H-indol-3-yl)-4-(1H-indol-3-yl)cyclobut-3-ene-1,2-dione]		65.9 ± 1.8	99.5 ± 0.4	3.02
O=c1c(-c2c[nH]c3ccccc23)c(-c2c[nH]c3ccccc23)c1=O [KuHL043, 3,4-Bis(1H-indol-3-yl)cyclobut-3-ene-1,2-dione]		17.9 ± 3.3	99.2 ± 0.2	8.33
O=c1c(-c2c[nH]c3ccccc23)c(-c2c(-c3ccccc3)[nH]c3ccccc23)c1=O [KuHL044, 3-(1H-Indol-3-yl)-4-(2-phenyl-1H-indol-3-yl)cyclobut-3-ene-1,2-dione]		65 ± 2.8	99.7 ± 0.1	6.38
COc1ccc2[nH]cc(-c3c(-c4c[nH]c5ccc(Br)cc45)c(=O)c3=O)c2c1 [KuHL047, 3-(5-Bromo-1H-indol-3-yl)-4-(5-methoxy-1H-indol-3-yl)cyclobut-3-ene-1,2-dione]		100	98.8 ± 0.7	0.47
COc1ccc2[nH]cc(-c3c(-c4c[nH]c5ccc(OC)cc45)c(=O)c3=O)c2c1 [KuHL048, 3,4-Bis(5-methoxy-1H-indol-3-yl)cyclobut-3-ene-1,2-dione]		19.7 ± 3.6	79.3 ± 1.3	
COc1ccc2[nH]cc(-c3c(-c4c[nH]c5ccccc45)c(=O)c3=O)c2c1 [KuHL049, 3-(1H-Indol-3-yl)-4-(5-methoxy-1H-indol-3-yl)cyclobut-3-ene-1,2-dione]		18.3 ± 5		
Cc1[nH]c2ccccc2c1-c1c(-c2cn(C)c3ccccc23)c(=O)c1=O [KuHL050, 3-(1-Methyl-1H-indol-3-yl)-4-(2-methyl-1H-indol-3-yl)cyclobut-3-ene-1,2-dione]		59.6 ± 0.2	99.3 ± 0.3	2.67
COc1ccc2[nH]cc(-c3c(-c4cn(C)c5ccccc45)c(=O)c3=O)c2c1 [KuHL057, 3-(5-Methoxy-1H-indol-3-yl)-4-(1-methyl-1H-indol-3-yl)cyclobut-3-ene-1,2-dione]			13.6 ± 3.9	
COc1ccc2[nH]cc(-c3c(-c4c(-c5ccccc5)[nH]c5ccccc45)c(=O)c3=O)c2c1 [KuHL058, 3-(5-Methoxy-1H-indol-3-yl)-4-(2-phenyl-1H-indol-3-yl)cyclobut-3-ene-1,2-dione]		22.4 ± 2.7		
O=c1c(-c2c[nH]c3ccc(Br)cc23)c(-c2c(-c3ccccc3)[nH]c3ccccc23)c1=O [KuHL071, 3-(5-Bromo-1H-indol-3-yl)-4-(2-phenyl-1H-indol-3-yl)cyclobut-3-ene-1,2-dione]		16 ± 0.7		
Cn1cc(-c2c(-c3c(-c4ccccc4)[nH]c4ccccc34)c(=O)c2=O)c2ccccc21 [KuHL072, 3-(1-Methyl-1H-indol-3-yl)-4-(2-phenyl-1H-indol-3-yl)cyclobut-3-ene-1,2-dione]		67.7 ± 0.7		1.72
Cc1[nH]c2ccccc2c1-c1c(-c2cn(C)c3ccc(Br)cc23)c(=O)c1=O [KuHL077, 3-(5-Bromo-1-methyl-1H-indol-3-yl)-4-(2-methyl-1H-indol-3-yl)cyclobut-3-ene-1,2-dione]		12.7 ± 2.8		
COc1ccc2[nH]cc(-c3c(-c4c[nH]c5ccc(I)cc45)c(=O)c3=O)c2c1 [KuHL101, 3-(5-Iodo-1H-indol-3-yl)-4-(5-methoxy-1H-indol-3-yl)cyclobut-3-ene-1,2-dione]		99.1 ± 0.4		0.65
COc1ccc2[nH]cc(-c3c(-c4c[nH]c5ccc(Cl)cc45)c(=O)c3=O)c2c1 [KuHL102, 3-(5-Chloro-1H-indol-3-yl)-4-(5-methoxy-1H-indol-3-yl)cyclobut-3-ene-1,2-dione]		87 ± 0.5		1.52
COc1ccc2[nH]cc(-c3c(-c4c[nH]c5ccc(C#N)cc45)c(=O)c3=O)c2c1 [KuHL103, 3-[2-(5-Methoxy-1H-indol-3-yl)-3,4-dioxocyclobut-1-ene-1-yl]-1H-indol-5-carbonitrile]		26.8 ± 1.1		
COc1ccc2[nH]cc(-c3c(-c4c[nH]c5ccc(F)cc45)c(=O)c3=O)c2c1 [KuHL113, 3-(5-Fluoro-1H-indol-3-yl)-4-(5-methoxy-1H-indol-3-yl)cyclobut-3-ene-1,2-dione]		19.3 ± 3.1		
O=c1c(-c2c[nH]c3ccccc23)c(-c2c[nH]c3ccc(I)cc23)c1=O [KuHL117, 3-(1H-indol-3-yl)-4-(5-iodo-1H-indol-3-yl)cyclobut-3-ene-1,2-dione]		31.3 ± 2.7		
O=c1c(-c2c[nH]c3ccccc23)c(-c2c[nH]c3ccc(Cl)cc23)c1=O [KuHL118, 3-(5-Chloro-1H-indol-3-yl)-4-(1H-indol-3-yl)cyclobut-3-ene-1,2-dione]		44.7 ± 0.5		
N#Cc1ccc2[nH]cc(-c3c(-c4c[nH]c5ccccc45)c(=O)c3=O)c2c1 [KuHL122, 3-[2-(1H-Indol-3-yl)-3,4-dioxocyclobut-1-ene-1-yl]-1H-indol-5-carbonitrile]		26.8 ± 1.6		
COc1ccc2[nH]cc(-c3c(-c4c[nH]c5ccc(OCc6ccccc6)cc45)c(=O)c3=O)c2c1 [KuHL136, 3-[5-(Benzyloxy)-1H-indol-3-yl]-4-(5-methoxy-1H-indol-3-yl)cyclobut-3-ene-1,2-dione]		21.7 ± 2.5		
